In patent US20060121565A1, “Methods for increasing the production of a recombinant polypeptide from a host cell” (CYMIP A/S, priority 2002, published 2006):

What was measured:
[1] = biological target: T1, protease performing the cleavage of synthetic human CCK-33 to CCK-22 (metalloprotease, identified as Cym1p) (Saccharomyces cerevisiae, UniProt P32898); experiment: In vitro protease assay: cleavage of synthetic CCK-33 to CCK-22 by crude yeast cell extract (LJY123); format: biochemical; conditions: extract from LJY123; 1 mM EDTA, 1 mM 1,10-orthophenanthroline; 30° C., 1 h
T1 construct: endogenous in cells; host or cells: S. cerevisiae strain LJY123 (APE1, APE2, APE3 deleted; derived from Y14953), clarified crude cell extract
T1 sequence (P32898 17-989): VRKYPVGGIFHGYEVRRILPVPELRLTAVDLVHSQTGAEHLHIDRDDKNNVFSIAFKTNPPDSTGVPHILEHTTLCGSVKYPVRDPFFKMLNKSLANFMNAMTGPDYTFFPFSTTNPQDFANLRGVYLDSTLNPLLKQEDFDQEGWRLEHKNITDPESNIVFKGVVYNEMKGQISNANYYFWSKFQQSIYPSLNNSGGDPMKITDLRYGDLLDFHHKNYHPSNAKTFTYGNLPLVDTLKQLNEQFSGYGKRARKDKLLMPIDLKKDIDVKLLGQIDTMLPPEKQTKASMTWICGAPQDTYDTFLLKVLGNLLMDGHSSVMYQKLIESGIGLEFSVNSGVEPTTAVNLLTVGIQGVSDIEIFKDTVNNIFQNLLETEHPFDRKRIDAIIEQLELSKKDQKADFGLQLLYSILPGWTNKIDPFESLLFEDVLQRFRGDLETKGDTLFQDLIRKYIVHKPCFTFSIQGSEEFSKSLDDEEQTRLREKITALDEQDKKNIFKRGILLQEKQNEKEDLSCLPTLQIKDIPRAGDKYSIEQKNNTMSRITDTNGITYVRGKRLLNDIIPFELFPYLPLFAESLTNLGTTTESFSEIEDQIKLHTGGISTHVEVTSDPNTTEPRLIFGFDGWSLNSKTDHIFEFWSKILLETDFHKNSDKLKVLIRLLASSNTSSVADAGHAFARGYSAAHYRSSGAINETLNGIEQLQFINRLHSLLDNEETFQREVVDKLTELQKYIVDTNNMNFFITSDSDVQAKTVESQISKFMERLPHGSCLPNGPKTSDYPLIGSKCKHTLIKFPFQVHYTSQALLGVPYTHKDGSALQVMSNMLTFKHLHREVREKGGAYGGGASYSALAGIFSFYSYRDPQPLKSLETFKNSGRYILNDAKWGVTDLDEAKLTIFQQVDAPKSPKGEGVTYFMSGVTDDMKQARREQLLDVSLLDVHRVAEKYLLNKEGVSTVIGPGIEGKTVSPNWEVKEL
Experimental: FIG. 4. In vitro protease assay including inhibitors and activators. The fraction of CCK-22 was calculated from the immuno-reactivity using Ab 89009 divided by the total amount of mature and N-terminal extended CCK-22 measured with Ab 89009 after trypsin treatment. A, Effect of different inhibitors. B, Protease reactivation by addition of 1.2 mM divalent metal ions to extracts where the activity had been inhibited with 1 mM EDTA. The data represent mean±SD of three independent experiments.
FIG. 5. Protease reactivation by Zn^2+ and Mn^2+. […] The activity was measured as the fraction of matured CCK-22 after 30, 60 and 120 min incubation. The fraction of CCK-22 was calculated from the immuno-reactivity using Ab 89009 divided by the total amount of mature and N-terminal extended CCK-22 measured with Ab 89009 after trypsin treatment. […]
Two different antisera were used to determine the amount of processed cholecystokinin. […] The fraction of CCK processed to CCK-22 is calculated by division of the immuno-reactivity measured with Ab 89009 with the amount measured with the same antibody after the sample was treated with trypsin to measure the total amount of N-terminal extended CCK-22. […]
The nature of the protease performing the cleavage of synthetic human CCK-33 to CCK-22 was analysed by inclusion of a number of different inhibitors with the extract from LJY123. […]

Ac-CCK-33-Gly, P06307 = biological target: T2, Ac-CCK-33-Gly, P06307
T2 chain: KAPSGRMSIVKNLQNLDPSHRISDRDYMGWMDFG

c1cnc2c(c1)ccc1cccnc12 [1,10 ortho-phenanthroline]
inhibition of proteolysis of CCK-33 to CCK-22 [1]: inhibited

O=C(O)CN(CCN(CC(=O)O)CC(=O)O)CC(=O)O [EDTA]
inhibition of proteolysis of CCK-33 to CCK-22 [1]: inhibited

B1: Saccharomyces cerevisiae Cym1p (protein)
chain: VRKYPVGGIFHGYEVRRILPVPELRLTAVDLVHSQTGAEHLHIDRDDKNNVFSIAFKTNPPDSTGVPHILEHTTLCGSVKYPVRDPFFKMLNKSLANFMNAMTGPDYTFFPFSTTNPQDFANLRGVYLDSTLNPLLKQEDFDQEGWRLEHKNITDPESNIVFKGVVYNEMKGQISNANYYFWSKFQQSIYPSLNNSGGDPMKITDLRYGDLLDFHHKNYHPSNAKTFTYGNLPLVDTLKQLNEQFSGYGKRARKDKLLMPIDLKKDIDVKLLGQIDTMLPPEKQTKASMTWICGAPQDTYDTFLLKVLGNLLMDGHSSVMYQKLIESGIGLEFSVNSGVEPTTAVNLLTVGIQGVSDIEIFKDTVNNIFQNLLETEHPFDRKRIDAIIEQLELSKKDQKADFGLQLLYSILPGWTNKIDPFESLLFEDVLQRFRGDLETKGDTLFQDLIRKYIVHKPCFTFSIQGSEEFSKSLDDEEQTRLREKITALDEQDKKNIFKRGILLQEKQNEKEDLSCLPTLQIKDIPRAGDKYSIEQKNNTMSRITDTNGITYVRGKRLLNDIIPFELFPYLPLFAESLTNLGTTTESFSEIEDQIKLHTGGISTHVEVTSDPNTTEPRLIFGFDGWSLNSKTDHIFEFWSKILLETDFHKNSDKLKVLIRLLASSNTSSVADAGHAFARGYSAAHYRSSGAINETLNGIEQLQFINRLHSLLDNEETFQREVVDKLTELQKYIVDTNNMNFFITSDSDVQAKTVESQISKFMERLPHGSCLPNGPKTSDYPLIGSKCKHTLIKFPFQVHYTSQALLGVPYTHKDGSALQVMSNMLTFKHLHREVREKGGAYGGGASYSALAGIFSFYSYRDPQPLKSLETFKNSGRYILNDAKWGVTDLDEAKLTIFQQVDAPKSPKGEGVTYFMSGVTDDMKQARREQLLDVSLLDVHRVAEKYLLNKEGVSTVIGPGIEGKTVSPNWEVKEL
rate of CCK-22 production in the in vitro protease assay (Ac-CCK-33-Gly, P06307): Expression of CYM1 on a multicopy plasmid enhanced the rate of CCK-22 production several fold
